Results reported in patent US10723741B1, “DNA polymerase IIIC inhibitors and use thereof” (Acurx Pharmaceuticals, LLC, priority 2018, dated 2020).
Values after ≈ are worked out from the molar mass of the structure shown. Read-outs that look alike come from different tables or passages of the source.

Experiments:
Type in all cases: cell-based
[1] = tested on: Staphylococcus aureus ATCC 29213 (MSSA); assay: Broth microdilution MIC, S. aureus ATCC 29213 (MSSA); details: broth microdilution, 37° C., 20 hours, read-out: MIC S. aureus ATCC 29213 (MSSA)
In short: (§1)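 Two-fold dilutions from 64 to 0.0625 μg/ml final, 1% DMSO, were inoculated at ~5.0×10^5 cfu/ml in the strain's test medium and kept 20 h at 37 °C in ambient atmosphere. Colonies were grown on MHA, with S. pneumoniae on blood agar under 5% CO2.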

[2] = tested on: Enterococcus faecium ATCC 700221 (VRE); assay: Broth microdilution MIC, E. faecium ATCC 700221 (VRE); details: Enterococcus faecium, broth microdilution, 37° C., 20 hours
In short: as §1

[3] = tested on: Escherichia coli ATCC 25922; assay: Broth microdilution MIC, E. coli ATCC 25922 (MHIIB w & w/o 4 mM EDTA); details: broth microdilution, 37° C., 20 hours; for MIC: Escherichia coli, ATCC25922, without EDTA, read-out: MIC E. coli ATCC 25922; for MIC E. coli ATCC 25922 + 4 mM EDTA: with 4 mM EDTA
In short: as §1

[4] = tested on: Streptococcus pneumoniae ATCC 49619; assay: Broth microdilution MIC, S. pneumoniae ATCC 49619; details: ATCC49619, broth microdilution, 37° C., 20 hours, read-out: MIC S. pneumoniae ATCC 49619
In short: as §1

[5] = tested on: Enterococcus faecalis ATCC 29212; assay: Broth microdilution MIC, E. faecalis ATCC 29212; details: ATCC29212, broth microdilution, 37° C., 20 hours, read-out: MIC E. faecalis ATCC 29212
In short: as §1

[6] = tested on: Bacillus subtilis ATCC 6633; assay: Broth microdilution MIC, B. subtilis ATCC 6633; details: ATCC6633, broth microdilution, 37° C., 20 hours, read-out: MIC B. subtilis ATCC 6633
In short: as §1

[7] = read-out: MIC E. faecium ATCC 700221 (VRE)
[8] = MHIIB, read-out: MIC against E. faecium ATCC 700221 (VRE)

With `Cn1ncc2nc(NCc3ccc(Cl)c(Cl)c3)[nH]c(=O)c21` [Compound 2, 5-((3,4-Dichlorobenzyl)amino)-1-methyl-1H-pyrazolo[4,3-d]pyrimidin-7(6H)-one] the MIC [1] was 2 µg/mL (≈ 6.17 µM), the MIC [2, 7] was 1 µg/mL (≈ 3.08 µM) and the MIC [2, 8] was ≤ 1 µg/mL. The MIC [3] was > 64 µg/mL, the “MIC E. coli ATCC 25922 + 4 mM EDTA” value [3] was >64 µg/mL and the MIC [4] was 4 µg/mL (≈ 12.3 µM). It also gave an MIC [5] of 2 µg/mL (≈ 6.17 µM) and an MIC [6] of 1 µg/mL (≈ 3.08 µM).

In the case of `Cc1nn(C)c2c(=O)[nH]c(NCc3ccc(Cl)c(Cl)c3)nc12` [Compound 44, 5-((3,4-dichlorobenzyl)amino)-1,3-dimethyl-1H-pyrazolo[4,3-d]pyrimidin-7(6H)-one], the MIC [1] is reported as 2 µg/mL (≈ 5.91 µM), the MIC [2, 7] is reported as 4 µg/mL (≈ 11.8 µM) and the MIC [2, 8] is reported as ≤ 1 µg/mL. The MIC [3] was > 64 µg/mL, the “MIC E. coli ATCC 25922 + 4 mM EDTA” value [3] was >64 µg/mL and the MIC [4] was 4 µg/mL (≈ 11.8 µM). It also gave an MIC [5] of 4 µg/mL (≈ 11.8 µM) and an MIC [6] of 2 µg/mL (≈ 5.91 µM).

In the case of `C=CCn1ncc2nc(NCc3ccc(Cl)c(Cl)c3)[nH]c(=O)c21` [Compound 56, 1-allyl-5-((3,4-dichlorobenzyl)amino)-1H-pyrazolo[4,3-d]pyrimidin-7(6H)-one], the MIC [1] is reported as 1 µg/mL (≈ 2.86 µM), the MIC [2, 7] is reported as 0.5 µg/mL (≈ 1.43 µM) and the MIC [2, 8] is reported as ≤ 1 µg/mL. For the same compound, the MIC [3] was > 64 µg/mL, the “MIC E. coli ATCC 25922 + 4 mM EDTA” value [3] was >64 µg/mL and the MIC [4] was 2 µg/mL (≈ 5.71 µM). The MIC [5] was 2 µg/mL (≈ 5.71 µM) and the MIC [6] was 0.25 µg/mL (≈ 0.714 µM).

`O=c1[nH]c(NCc2ccc(Cl)c(Cl)c2)nc2cn[nH]c12` [Compound 77, 5-((3,4-dichlorobenzyl)amino)-1H-pyrazolo[4,3-d]pyrimidin-7(6H)-one] was tested, and the MIC [1] was 8 µg/mL (≈ 25.8 µM), the MIC [2, 7] was 4 µg/mL (≈ 12.9 µM) and the MIC [3] was > 64 µg/mL. The “MIC E. coli ATCC 25922 + 4 mM EDTA” value [3] was >64 µg/mL, the MIC [4] was 4 µg/mL (≈ 12.9 µM) and the MIC [5] was 8 µg/mL (≈ 25.8 µM). The MIC [6] was 4 µg/mL (≈ 12.9 µM).

`COCCn1ncc2nc(NCc3ccc(Cl)c(Cl)c3)[nH]c(=O)c21` [Compound 126, 5-((3,4-dichlorobenzyl)amino)-1-(2-methoxyethyl)-1H-pyrazolo[4,3-d]pyrimidin-7(6H)-one] was tested, and the MIC [1] was 2 µg/mL (≈ 5.43 µM), the MIC [2, 7] was 2 µg/mL (≈ 5.43 µM) and the MIC [3] was > 64 µg/mL. The “MIC E. coli ATCC 25922 + 4 mM EDTA” value [3] was >64 µg/mL, the MIC [4] was 2 µg/mL (≈ 5.43 µM) and the MIC [5] was 4 µg/mL (≈ 10.9 µM). For the same compound, the MIC [6] was 1 µg/mL (≈ 2.72 µM).

With `Cl.O=c1[nH]c(NCc2ccc(Cl)c(Cl)c2)nc2cnn(CC3CNCCO3)c12` (stereo not drawn) [Compound 149, 5-((3,4-dichlorobenzyl)amino)-1-(morpholin-2-ylmethyl)-1H-pyrazolo[4,3-d]pyrimidin-7(6H)-one hydrochloride] the MIC [1] was 16 µg/mL, the MIC [2, 7] was 8 µg/mL and the MIC [3] was > 64 µg/mL. For the same compound, the “MIC E. coli ATCC 25922 + 4 mM EDTA” value [3] was 64 µg/mL, the MIC [4] was 4 µg/mL and the MIC [5] was 16 µg/mL. For the same compound, the MIC [6] was 2 µg/mL.

`Cl.Cl.O=c1[nH]c(NCc2ccc(Cl)c(Cl)c2)nc2cnn(CCOCCN3CCNCC3)c12` [Compound 167, 5-[(3,4-dichlorophenyl)methylamino]-1-[2-(2-piperazin-1-ylethoxy)ethyl]-6H-pyrazolo[4,3-d]pyrimidin-7-one] was tested, and the MIC [2, 7] was 64 µg/mL, the MIC [3] was > 64 µg/mL and the “MIC E. coli ATCC 25922 + 4 mM EDTA” value [3] was >64 µg/mL. For the same compound, the MIC [4] was 16 µg/mL, the MIC [5] was 64 µg/mL and the MIC [6] was 16 µg/mL.

For `CN(C)CCOCCn1ncc2nc(NCc3ccc(Cl)c(Cl)c3)[nH]c(=O)c21.Cl` [Compound 211, 5-((3,4-dichlorobenzyl)amino)-1-(2-(2-(dimethylamino)ethoxy)ethyl)-1H-pyrazolo[4,3-d]pyrimidin-7(6H)-one hydrochloride], the MIC [1] was 32 µg/mL, the MIC [2, 7] was 8 µg/mL and the MIC [3] was > 64 µg/mL. The “MIC E. coli ATCC 25922 + 4 mM EDTA” value [3] was >64 µg/mL, the MIC [4] was 4 µg/mL and the MIC [5] was 16 µg/mL. For the same compound, the MIC [6] was 2 µg/mL.

With `O=c1[nH]c(NCc2ccc(Cl)c(Cl)c2)nc2cnn(-c3ccccc3)c12` [Compound 212, 5-[(3,4-dichlorophenyl)methylamino]-1-phenyl-6H-pyrazolo[4,3-d]pyrimidin-7-one] the MIC [1] was 1 µg/mL (≈ 2.59 µM), the MIC [2, 7] was 1 µg/mL (≈ 2.59 µM) and the MIC [2, 8] was ≤ 1 µg/mL. The MIC [3] was > 64 µg/mL, the “MIC E. coli ATCC 25922 + 4 mM EDTA” value [3] was >64 µg/mL and the MIC [4] was 8 µg/mL (≈ 20.7 µM). The MIC [5] was > 64 µg/mL and the MIC [6] was 1 µg/mL (≈ 2.59 µM).

`O=c1[nH]c(NCc2ccc(Cl)c(Cl)c2)nc2cnn(C3CC3)c12` [Compound 213, 1-Cyclopropyl-5-((3,4-dichlorobenzyl)amino)-1H-pyrazolo[4,3-d]pyrimidin-7(6H)-one] was tested, and the MIC [1] was 1 µg/mL (≈ 2.86 µM), the MIC [2, 7] was 1 µg/mL (≈ 2.86 µM) and the MIC [2, 8] was ≤ 1 µg/mL. The MIC [3] was > 64 µg/mL, the “MIC E. coli ATCC 25922 + 4 mM EDTA” value [3] was >64 µg/mL and the MIC [4] was 4 µg/mL (≈ 11.4 µM). For the same compound, the MIC [5] was 2 µg/mL (≈ 5.71 µM) and the MIC [6] was 0.5 µg/mL (≈ 1.43 µM).

`O=c1[nH]c(NCc2ccc(Cl)c(Cl)c2)nc2cnn(C3CCCC3)c12` [Compound 214, 1-cyclopentyl-5-((3,4-dichlorobenzyl)amino)-1H-pyrazolo[4,3-d]pyrimidin-7(6H)-one] was tested, and the MIC [1] was 2 µg/mL (≈ 5.29 µM), the MIC [2, 7] was 1 µg/mL (≈ 2.64 µM) and the MIC [2, 8] was ≤ 1 µg/mL. For the same compound, the MIC [3] was > 64 µg/mL, the “MIC E. coli ATCC 25922 + 4 mM EDTA” value [3] was >64 µg/mL and the MIC [4] was 8 µg/mL (≈ 21.1 µM). The MIC [5] was 2 µg/mL (≈ 5.29 µM) and the MIC [6] was 0.5 µg/mL (≈ 1.32 µM).

`COC(=O)CCCCn1ncc2nc(NCc3ccc(Cl)c(Cl)c3)[nH]c(=O)c21` [Compound 218, methyl 5-[5-[(3,4-dichlorophenyl)methylamino]-7-oxo-6H-pyrazolo[4,3-d]pyrimidin-1-yl]pentanoate] was tested, and the MIC [1] was 1 µg/mL (≈ 2.36 µM), the MIC [2, 7] was 1 µg/mL (≈ 2.36 µM) and the MIC [2, 8] was ≤ 1 µg/mL. For the same compound, the MIC [3] was > 64 µg/mL, the “MIC E. coli ATCC 25922 + 4 mM EDTA” value [3] was >64 µg/mL and the MIC [4] was 2 µg/mL (≈ 4.71 µM). For the same compound, the MIC [5] was 2 µg/mL (≈ 4.71 µM) and the MIC [6] was 0.5 µg/mL (≈ 1.18 µM).

For `Cl.O=c1[nH]c(NCc2ccc(Cl)c(Cl)c2)nc2cnn(C3CCN(C4CCOCC4)CC3)c12` [Compound 242, 5-((3,4-dichlorobenzyl)amino)-1-(1-(tetrahydro-2H-pyran-4-yl)piperidin-4-yl)-1H-pyrazolo[4,3-d]pyrimidin-7(6H)-one hydrochloride], the MIC [1] was 8 µg/mL, the MIC [2, 7] was 2 µg/mL and the MIC [3] was > 64 µg/mL. The “MIC E. coli ATCC 25922 + 4 mM EDTA” value [3] was 32 µg/mL, the MIC [4] was 2 µg/mL and the MIC [5] was 4 µg/mL. The MIC [6] was 2 µg/mL.

For `O=C(O)CCC(=O)N1CCC(n2ncc3nc(NCc4ccc(Cl)c(Cl)c4)[nH]c(=O)c32)CC1` [Compound 273, 4-(4-(5-((3,4-dichlorobenzyl)amino)-7-oxo-6,7-dihydro-1H-pyrazolo[4,3-d]pyrimidin-1-yl)piperidin-1-yl)-4-oxobutanoic Acid], the MIC [1] was > 64 µg/mL, the MIC [2, 7] was 32 µg/mL (≈ 64.9 µM) and the MIC [3] was > 64 µg/mL. For the same compound, the “MIC E. coli ATCC 25922 + 4 mM EDTA” value [3] was >64 µg/mL, the MIC [4] was 32 µg/mL (≈ 64.9 µM) and the MIC [5] was 64 µg/mL (≈ 130 µM). For the same compound, the MIC [6] was > 64 µg/mL.

With `O=C([C@@H](O)[C@H](O)CO)N1CCC(n2ncc3nc(NCc4ccc(Cl)c(Cl)c4)[nH]c(=O)c32)CC1` [Compound 276, 5-((3,4-dichlorobenzyl)amino)-1-(1-((2S,3R)-2,3,4-trihydroxybutanoyl)piperidin-4-yl)-1H-pyrazolo[4,3-d]pyrimidin-7(6H)-one] the MIC [1] was > 64 µg/mL, the MIC [2, 7] was 32 µg/mL (≈ 62.6 µM) and the MIC [3] was > 64 µg/mL. The “MIC E. coli ATCC 25922 + 4 mM EDTA” value [3] was >64 µg/mL, the MIC [4] was 8 µg/mL (≈ 15.6 µM) and the MIC [5] was 64 µg/mL (≈ 125 µM). The MIC [6] was 16 µg/mL (≈ 31.3 µM).
